According to patent US4581460A, “Substituted 1-benzoyl-2-phenyliminoimidazolidine derivatives” (Chemie Linz Aktiengesellschaft, priority 1982, dated 1986):

system: phenyl-p-quinone-induced writhing syndrome of the mouse; assay: Writhing test (phenyl-p-quinone-induced writhing syndrome of the mouse); assay type: in vivo; conditions: Mus musculus; oral, 60 min before i.p. phenyl-p-quinone; dose protecting 50% of the animals; read-out: ED50 (antiwrithing potency)
Description: 60 minutes after oral application of the test compounds mice were injected intraperitoneally with 0.3 ml of a 0.02% phenyl-p-quinone solution in a alcohol-water mixture (1:25 v/v). After the phenyl-p-quinone injection each mouse was observed during a span of 20 minutes.
The ED50 values (antiwrithing potency) were computed according to the method of N. R. Thompsom and C. S. Weil (Biometrics 8, 1952, 51-54, 249-263). The ED50 value refers to the dose (mg of test compound/kg of mouse) protecting 50% of the animals from pain in the writhing test.

With COc1ccc(C(=O)N2CCNC2=Nc2c(C)cccc2Cl)cc1OC [1-(3,4-dimethoxybenzoyl)-2-(2-chloro-6-methylphenylimino)-imidazolidine] as the compound, how does the ED50 read?
Its ED50 is 4.42 mg/kg.

With Cc1cccc(Cl)c1N=C1NCCN1C(=O)c1ccc(F)cc1 [1-p-fluorobenzoyl-2-(2-chloro-6-methylphenylimino)imidazolidine] as the compound, how does the ED50 read?
Its ED50 is 1 mg/kg.

For CS(=O)(=O)c1ccc(C(=O)N2CCNC2=Nc2cccc(Cl)c2Cl)cc1 [1-p-methylsulfonylbenzoyl-2-(2,3-dichlorophenylimino)-imidazolidine], which ED50 is on record?
The ED50 was 1.04 mg/kg.

With CCCOc1ccc(C(=O)N2CCNC2=Nc2c(Cl)cccc2Cl)cc1 [1-(p-n-propoxybenzoyl)-2-(2,6-dichlorophenylimino)-imidazolidine] as the compound, how does the ED50 read?
Its ED50 is 0.46 mg/kg.

Which ED50 does the source give for COc1ccc(C(=O)N2CCNC2=Nc2c(Cl)cccc2Cl)cc1 [1-p-methoxybenzoyl-2-(2,6-dichlorophenylimino)-imidazolidine] here?
Its ED50 is 0.63 mg/kg.

With O=C(c1cccc(F)c1)N1CCNC1=Nc1cccc(Cl)c1Cl [1-m-fluorobenzoyl-2-(2,3-dichlorophenylimino)-imidazolidine] as the compound, how does the ED50 read?
Its ED50 is 2.08 mg/kg.

Which ED50 does the source give for Cc1ccc(C(=O)N2CCNC2=Nc2c(Cl)cccc2Cl)cc1F [1-(3-fluoro-4-methylbenzoyl)-2-(2,6-dichlorophenylimino)-imidazolidine] here?
The ED50 was 0.5 mg/kg.

With COc1ccc(C(=O)N2CCNC2=Nc2cccc(Cl)c2Cl)cc1 [1-p-methoxybenzoyl-2-(2,3-dichlorophenylimino)-imidazolidine] as the compound, how does the ED50 read?
Its ED50 is 0.99 mg/kg.

Which ED50 does the source give for CCOc1ccc(C(=O)N2CCNC2=Nc2c(Cl)cccc2Cl)cc1 [1-p-ethoxybenzoyl-2-(2,6-dichlorophenylimino)-imidazolidine] here?
The ED50 was 0.98 mg/kg.

With Cc1cc(C(=O)N2CCNC2=Nc2c(Cl)cccc2Cl)ccc1[N+](=O)[O-] [1-(3-methyl-4-nitrobenzoyl)-2-(2,6-dichlorophenylimino)-imidazolidine] as the compound, how does the ED50 read?
The ED50 was 0.68 mg/kg.

With O=C(c1ccc(Cl)cc1)N1CCNC1=Nc1ccc(Cl)cc1Cl [1-p-chlorobenzoyl-2-(2,4-dichlorophenylimino)-imidazolidine] as the compound, how does the ED50 read?
The ED50 was 3.54 mg/kg.

Which ED50 does the source give for O=C(c1ccc(F)cc1)N1CCNC1=Nc1cccc(Cl)c1Cl [1-p-fluorobenzoyl-2-(2,3-dichlorophenylimino)-imidazolidine] here?
The ED50 was 1.15 mg/kg.

With O=C(c1ccc(F)cc1)N1CCNC1=Nc1cc(Cl)ccc1Cl [1-p-fluorobenzoyl-2-(2,5-dichlorophenylimino)-imidazolidine] as the compound, how does the ED50 read?
Its ED50 is 10 mg/kg.

With O=C(c1ccc(Cl)cc1)N1CCNC1=Nc1cccc(Cl)c1Cl [1-p-chlorobenzoyl-2-(2,3-dichlorophenylimino)-imidazolidine] as the compound, how does the ED50 read?
Its ED50 is 1.26 mg/kg.

With CS(=O)(=O)c1ccc(C(=O)N2CCNC2=Nc2c(Cl)cccc2Cl)cc1 [1-(p-methylsulfonylbenzoyl)-2-(2,6-dichlorophenylimino)-imidazolidine] as the compound, how does the ED50 read?
The ED50 was 0.75 mg/kg.

For CC(C)Oc1ccc(C(=O)N2CCNC2=Nc2c(Cl)cccc2Cl)cc1 [1-p-isopropoxybenzoyl-2-(2,6-dichlorophenylimino)-imidazolidine], which ED50 is on record?
Its ED50 is 0.54 mg/kg.

For O=C(c1ccc([N+](=O)[O-])cc1)N1CCNC1=Nc1ccc(Cl)cc1Cl [1-p-nitrobenzoyl-2-(2,4-dichlorophenylimino)-imidazolidine], which ED50 is on record?
Its ED50 is 1.77 mg/kg.

For N#Cc1cccc(C(=O)N2CCNC2=Nc2c(Cl)cccc2Cl)c1 [1-m-cyanobenzoyl-2-(2,6-dichlorophenylimino)-imidazolidine], which ED50 is on record?
Its ED50 is 0.25 mg/kg.

For COc1ccc(C(=O)N2CCNC2=Nc2c(Cl)cccc2Cl)cc1OC [1-(3,4-dimethoxybenzoyl)-2-(2,6-dichlorophenylimino)-imidazolidine], which ED50 is on record?
The ED50 was 4.36 mg/kg.

For O=C(c1cccc(Cl)c1)N1CCNC1=Nc1c(Cl)cccc1Cl [1-m-chlorobenzoyl-2-(2,6-dichlorophenylimino)-imidazolidine], which ED50 is on record?
The ED50 was 0.81 mg/kg.

With O=C(c1ccc(F)cc1)N1CCNC1=Nc1c(Cl)cccc1Cl [1-p-fluorobenzoyl-2-(2,6-dichlorophenylimino)-imidazolidine] as the compound, how does the ED50 read?
The ED50 was 0.81 mg/kg.

same assay, conditions: oral, 60 min before i.p. phenyl-p-quinone; dose protecting 50% of the animals

Which “ED50 (antiwrithing potency)” value does the source give for CCCCOc1ccc(C(=O)N2CCNC2=Nc2cccc(Cl)c2Cl)cc1 [1-p-n-butoxybenzoyl-2-(2,3-dichlorophenylimino-imidazolidine] here?
Its value is 4.49 mg of test compound/kg of mous.

same assay, conditions: po; writhing test, mouse; dose protecting 50% of the animals; read-out: ED50 in the writhing test

For N#Cc1ccc(C(=O)N2CCNC2=Nc2c(Cl)cccc2Cl)cc1 [1-p-cyanobenzoyl-2-(2,6-dichlorophenylimino)-imidazolidine], which ED50 is on record?
The ED50 was 0.55 mg/kg.

For CC(C)=CCN1CCC2(C)c3cc(O)ccc3CC1C2C (centres unmarked) [Pentazocin, reference compound], which ED50 is on record?
The ED50 was 168 mg/kg.

system: not given; assay: not given; conditions: U.S. Pat. No. 3,988,345; U.S. Pat. No. 4,389,403; cited from earlier work

Which “antihypertensive / hypotensive effect (prior art)” value does the source give for O=C(c1ccccc1)N1CCNC1=Nc1c(Cl)cccc1Cl [benclonidine, 1-benzoyl-2-(2,6-dichlorophenylimino)-imidazolidine] here?
Its value is “marked antihypertensive effect”.

system: not given; assay: not given; conditions: U.S. Pat. No. 4,142,051; cited from earlier work

Which “analgesic properties (prior art)” value does the source give for O=C(C1CC=CCC1)N1CCNC1=Nc1c(Cl)cccc1Cl (centres unmarked) [1-(cyclohex-3-en-1-oyl)-2-(2,6-dichlorophenylimino)-imidazolidine] here?
Its value is “exhibit analgesic properties”.
